How the values were obtained:
Type in all cases: cell-based
[1] = tested on: U2OS cells; assay: Apoptosis (sub-G1) by FACS in U2OS cells; details: U2OS cells, expression vectors 48 h; relative to wild-type E2F-1; n=2
Protocol: Whether arginine methylation influences E2F-1-dependent apoptosis was investigated by comparing the ability of wild-type E2F-1 to the KK and KKK mutants to induce cells with a sub-G1 DNA content (Stevens et al 2003). […] U2OS cells were transfected with expression vectors encoding wild-type E2F-1, KK and KKK as indicated for 48 h and analysed by FACS as described. The graph represents the relative change in sub-G1 populations compared to the empty vector control treatment; n=2.
The graph (i) represents the relative number of sub-G I cells (compared to the control treatment) in the indicated conditions; and (ii) the level of PRMT5 and E2F-1; n=3.
PRMT5 (P) or control (C) non-targeting siRNA (25 nM) was transfected into HCT116 p53+/+ (i), HCT116 p53−/− (ii) or U2OS (iii) cells and the cells were harvested 72 h post-transfection and analysed by FACS. The graph represents the actual number of sub-G1 cells in the indicated conditions, and the immunoblot the level of PRMT5 and actin control; n=3.
PRMT5 (P), E2F-1 (E) or control (C) non-targeting siRNA was transfected into U2OS cells and harvested 72 h post-transfection and analysed by FACS as described.
Cells were transfected with the indicated expression vectors together with pBB14-GFP (for 48 h) to monitor transfection efficiency or siRNA (for 48 h or 72 h) with or without treatment of the DNA damage agent for the last 16 h. Then, cells were fixed and stained with propidium iodide and analyzed by Flow Cytometry.

[2] = target: PRMT5 (Homo sapiens, UniProt O14744); assay: Co-immunoprecipitation of ectopic E2F-1 with PRMT5 in U2OS cells; parameters: The indicated GST proteins were incubated with U2OS cell lysate; endogenous in cells; host or cells: U2OS; details: expression vector transfected into U2OS cells, HA11 IP
Source text: To establish whether E2F-1 was able to bind to PRMT5 in cells, the interaction between ectopic wild-type E2F-1 or KKK with PRMT5 was studied. […] Either a wild-type E2F-1 expression vector or a KKK expression vector was transfected into U2OS cells, and HA11 antibody was used for immunoprecipitation (IP) followed by immunoblotting with HA11 (E2F-1), PRMT5 or DP-1 as indicated. The level of input (In) protein is indicated. […] In contrast, binding to DP-1 was equivalent for both wild-type E2F-1 and KKK. […] Further, the RGRGR motif is necessary for the interaction, which also encompasses the site of PRMT5 methylation.
Cells were either left untransfected or transfected with expression vectors as indicated. At 48 h post transfection, cells were harvested in TNN buffer (50 mM Tris-HC1 [pH 7.4], 150 mM NaCl, 5 mM EDTA, 0.5% Ipegal, 50 mM NaF, 0.2 mM sodium orthovanadate and protease inhibitor cocktail (1 mM PMSF, leupeptin [1 μg/ml], aprotinin [1 μg/m1], and pepstatin A [1 μg/ml])) and rotated at 4° C. for 30 min to 1 h. The cell lysate was then homogenised, centrifuged at 11000 rpm for 10 min to remove cell debris and the supernatant collected. All lysates were normalized for protein concentration and, where appropriate, for transfection by β-galactosidase activity. […] Enhanced chemi-luminescence (Pierce Biotechnology, Rockford, Ill.) was used to visualize antibody binding.

[3] = tested on: p73-luciferase or cyclinE-luciferase; assay: Reporter assay with E2F-responsive promoters; details: U2OS cells, 48 h, equivalent protein level; compared to wild-type E2F-1; n=3
Protocol: To further explore the role of arginine methylation in the transcription properties of E2F-1, wild-type E2F-1 was compared with the KK and KKK mutants in a reporter-based transfection assay, using E2F-responsive promoters derived from E2F target genes. The assay was performed under conditions in which each mutant protein was expressed at an equivalent level to wild-type E2F-1 (FIG. 4aii and bii), thus ruling out any difference in activity that could be attributed to protein levels. […] FIGS. 4a and b show the transcription properties of wild-type E2F-1, KK and KKK mutants. U2OS cells were transfected with expression vectors encoding WT or mutant E2F-1 protein, together with p73-luciferase (A) or cyclinE-luciferase (B) for 48 h as indicated, and pCMV-βgal to monitor transfection efficiency. Relative luciferase activity (luciferase/βgal) is shown together with expression level of ectopic proteins; n=3. […] PRMT5 (P) or control (C) non-targeting siRNA was transfected into U2OS cells together with p73-luciferase (i) or cyclinE-luciferase (ii) for 48 h, together with pCMV-βgal to monitor transfection efficiency. Relative luciferase activity is shown together with expression level of the ectopic proteins.
Cells were transfected with expression vectors (1 μg) encoding WT or the mutant E2F-1 proteins as indicated with E2F responsive luciferase reporters, namely p73-luciferase or cyclinE-luciferase, together with pCMV-βgal to monitor transfection efficiency. Cells were harvested, lysed 48 h post-transfection and luciferase activity measured as previously described (Janson et al 2008).

Chain of PRMT5 (O14744 whole entry): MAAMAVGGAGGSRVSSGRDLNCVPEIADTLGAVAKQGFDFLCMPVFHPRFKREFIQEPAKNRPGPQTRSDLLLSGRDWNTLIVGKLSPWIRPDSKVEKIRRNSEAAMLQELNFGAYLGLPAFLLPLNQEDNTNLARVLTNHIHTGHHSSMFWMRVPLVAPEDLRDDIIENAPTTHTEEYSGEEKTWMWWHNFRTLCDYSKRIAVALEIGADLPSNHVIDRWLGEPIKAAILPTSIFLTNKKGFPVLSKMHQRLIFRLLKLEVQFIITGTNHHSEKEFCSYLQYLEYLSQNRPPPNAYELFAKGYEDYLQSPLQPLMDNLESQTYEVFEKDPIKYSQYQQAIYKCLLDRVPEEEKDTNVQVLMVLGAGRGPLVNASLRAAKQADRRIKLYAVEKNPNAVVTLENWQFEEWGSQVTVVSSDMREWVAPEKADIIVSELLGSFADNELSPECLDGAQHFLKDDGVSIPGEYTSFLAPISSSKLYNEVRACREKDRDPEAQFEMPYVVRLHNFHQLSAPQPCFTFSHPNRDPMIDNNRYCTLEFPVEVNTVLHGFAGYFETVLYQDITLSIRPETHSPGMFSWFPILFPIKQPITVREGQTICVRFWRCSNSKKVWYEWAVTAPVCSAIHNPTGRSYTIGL

Q: With “KKK: methylation-defective E2F-1 protein containing the mutations R109K, R111K and R113K” as the substance, how does the “apoptosis (sub-G1 population)” value [1] read?
A: increased levels of apoptosis

Q: What about the “co-immunoprecipitation with PRMT5” value [2] of the same substance?
A: not apparent

Q: And the “transcriptional activity (relative luciferase activity)” value [3]?
A: increased transcriptional activity
